Test results reported in US20240025883A1, “PYRIMIDIN-2-YL SULFONAMIDE DERIVATIVES” (Hoffmann-La Roche Inc., priority 2021, published 2024).

These compounds were tested against human GPR17 short isoform (Homo sapiens (Human), UniProt Q13304) (assay: GPR17 cAMP assay (hGPR17 cAMP, antagonist mode against EC80 of MDL29,951)). Conditions: CHO-K1 cells stably expressing human GPR17 short isoform; EC80 of agonist MDL29,951; forskolin 15 μM.
human GPR17 short isoform, sequence (Q13304 29-367): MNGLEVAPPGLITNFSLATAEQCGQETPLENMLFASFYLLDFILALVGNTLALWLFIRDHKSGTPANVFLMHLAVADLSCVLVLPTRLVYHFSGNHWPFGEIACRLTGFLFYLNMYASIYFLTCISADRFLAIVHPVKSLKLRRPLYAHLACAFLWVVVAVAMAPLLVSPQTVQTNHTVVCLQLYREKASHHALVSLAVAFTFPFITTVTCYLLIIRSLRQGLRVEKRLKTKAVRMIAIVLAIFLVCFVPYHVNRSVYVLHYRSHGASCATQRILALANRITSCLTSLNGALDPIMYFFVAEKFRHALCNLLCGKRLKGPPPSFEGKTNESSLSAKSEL
Assay type: cell-based
In short: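 cAMP was read by competitive TR-FRET after a 30 min room-temperature stimulation: antagonists plus EC80 MDL29,951 and 0.5 mM IBMX, followed 5 min later by 15 μM forskolin. Cells were CHO-K1 with stable human GPR17 short isoform in HBSS/HEPES/BSA, pH 7.4; percent activity versus reference antagonist fitted sigmoidally.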
For `COc1nc(NS(=O)(=O)c2c[nH]c3c(OC)c(Cl)ccc23)ncc1CC(F)F` [Example 186, 6-chloro-N-[5-(2,2-difluoroethyl)-4-methoxy-pyrimidin-2-yl]-7-methoxy-1H-indole-3-sulfonamide], the IC50 was 13 nM. `COc1nc(NS(=O)(=O)c2c[nH]c3cc(Cl)ccc23)nc(OC)c1OCC1COC1` [Example 263, 6-chloro-N-[4,6-dimethoxy-5-(oxetan-3-ylmethoxy)pyrimidin-2-yl]-1H-indole-3-sulfonamide] showed an IC50 of 2060 nM. Compound `COc1nc(NS(=O)(=O)c2c[nH]c3cc(Cl)ccc23)ncc1CC1CC1` [Example 46, 6-chloro-N-[5-(cyclopropylmethyl)-4-methoxy-pyrimidin-2-yl]-1H-indole-3-sulfonamide] has an IC50 of 918 nM. `COc1nc(NS(=O)(=O)c2c[nH]c3c(OCC#N)c(Cl)ccc23)nc(OC)c1CC(F)F` [Example 294, 6-Chloro-7-(Cyanomethoxy)-N-[5-(2,2-Difluoroethyl)-4,6-Dimethoxy-Pyrimidin-2-Yl]-1H-Indole-3-Sulfonamide] gave an IC50 of 24 nM. In the case of `COc1nc(NS(=O)(=O)c2c[nH]c3nc(Br)ccc23)nc(OC)c1OC(F)(F)CF` [Example 110, 6-bromo-N-[4,6-dimethoxy-5-(1,1,2-trifluoroethoxy)pyrimidin-2-yl]-1H-pyrrolo[2,3-b]pyridine-3-sulfonamide], the IC50 is reported as 25 nM. `COc1nc(NS(=O)(=O)c2csc3cc(Cl)ccc23)ncc1CCC(F)F` [Example 155, 6-chloro-N-[5-(3,3-difluoropropyl)-4-methoxy-pyrimidin-2-yl]benzothiophene-3-sulfonamide] gave an IC50 of 116 nM. For `COc1nc(NS(=O)(=O)c2c[nH]c3cc(Cl)ccc23)nc(OC)c1Br` [Example 12, N-(5-bromo-4,6-dimethoxy-pyrimidin-2-yl)-6-chloro-1H-indole-3-sulfonamide], the IC50 was 20 nM. For `COc1nc(NS(=O)(=O)c2c[nH]c3c(F)c(C(F)F)ccc23)nc(OC)c1CCC#N` [Example 252, N-[5-(2-cyanoethyl)-4,6-dimethoxy-pyrimidin-2-yl]-6-(difluoromethyl)-7-fluoro-1H-indole-3-sulfonamide], the IC50 was 14 nM. In the case of `COc1nc(NS(=O)(=O)c2c[nH]c3c(CC#N)c(Cl)ccc23)ncc1CC(F)F` [Example 232, 6-chloro-7-(cyanomethyl)-N-[5-(2,2-difluoroethyl)-4-methoxy-pyrimidin-2-yl]-1H-indole-3-sulfonamide], the IC50 is reported as 35 nM. With `COc1nc(NS(=O)(=O)c2c[nH]c3c(F)c(C(F)F)ccc23)nc(OC)c1OCC(F)F` [Example 250, N-[5-(2,2-difluoroethoxy)-4,6-dimethoxy-pyrimidin-2-yl]-6-(difluoromethyl)-7-fluoro-1H-indole-3-sulfonamide] the IC50 was 35 nM. With `CCCc1c(OC)nc(NS(=O)(=O)c2c[nH]c3cc(Cl)ccc23)nc1OC` [Example 58, 6-chloro-N-(4,6-dimethoxy-5-propyl-pyrimidin-2-yl)-1H-indole-3-sulfonamide] the IC50 was 17 nM. Work on `COc1nc(NS(=O)(=O)c2c[nH]c3cc(Cl)ccc23)nc(OC)c1OC(F)F` [Example 52, 6-chloro-N-[5-(difluoromethoxy)-4,6-dimethoxy-pyrimidin-2-yl]-1H-indole-3-sulfonamide] yielded an IC50 of 32 nM. `COc1nc(NS(=O)(=O)c2c[nH]c3cc(C(C)(C)O)ccc23)ncc1CC(F)F` [Example 274, N-[5-(2,2-difluoroethyl)-4-methoxy-pyrimidin-2-yl]-6-(1-hydroxy-1-methyl-ethyl)-1h-indole-3-sulfonamide] gave an IC50 of 237 nM. `COc1nc(NS(=O)(=O)c2c[nH]c3cc(Cl)ccc23)ncc1CC(C)(F)F` [Example 260, 6-chloro-N-[5-(2,2-difluoropropyl)-4-methoxy-pyrimidin-2-yl]-1H-indole-3-sulfonamide] was tested, and the IC50 was 488 nM. Compound `COc1nc(NS(=O)(=O)c2c[nH]c3nc(C)ccc23)nc(OC)c1OCC(F)F` [Example 285, N-[5-(2,2-Difluoroethoxy)-4,6-Dimethoxy-Pyrimidin-2-Yl]-6-Methyl-1H-Pyrrolo[2,3-b]Pyridine-3-Sulfonamide] has an IC50 of 117 nM. Work on `COc1nc(NS(=O)(=O)c2c[nH]c3cc(Cl)ccc23)nc(OC)c1CCC(F)(F)F` [Example 64, 6-chloro-N-[4,6-dimethoxy-5-(3,3,3-trifluoropropyl)pyrimidin-2-yl]-1H-indole-3-sulfonamide] yielded an IC50 of 39 nM. In the case of `COc1nc(NS(=O)(=O)c2c[nH]c3c(OC4CC4)c(Cl)ccc23)ncc1CCC(F)F` [Example 212, 6-chloro-7-(cyclopropoxy)-N-[5-(3,3-difluoropropyl)-4-methoxy-pyrimidin-2-yl]-1H-indole-3-sulfonamide], the IC50 is reported as 45 nM. `COc1nc(NS(=O)(=O)c2c[nH]c3c(OCF)c(Cl)ccc23)ncc1CC(F)F` [Example 198, 6-chloro-N-[5-(2,2-difluoroethyl)-4-methoxy-pyrimidin-2-yl]-7-(fluoromethoxy)-1H-indole-3-sulfonamide] gave an IC50 of 36 nM. For `COCCOc1cnc(NS(=O)(=O)c2c[nH]c3cc(Cl)ccc23)nc1OC` [Example 7, 6-chloro-N-[4-methoxy-5-(2-methoxyethoxy)pyrimidin-2-yl]-1H-indole-3-sulfonamide], the IC50 was 403 nM. In the case of `COc1nc(NS(=O)(=O)c2c[nH]c3c2ccc2scnc23)ncc1CC(F)F` [Example 290, N-[5-(2,2-Difluoroethyl)-4-Methoxy-Pyrimidin-2-Yl]-8H-Pyrrolo[2,3-e][1.3]Benzothiazole-6-Sulfonamide], the IC50 is reported as 405 nM. With `COc1nc(NS(=O)(=O)c2c[nH]c3cc(Cl)ccc23)ncc1CC(F)(F)F` [Example 177, 6-chloro-N-[4-methoxy-5-(2,2,2-trifluoroethyl)pyrimidin-2-yl]-1H-indole-3-sulfonamide] the IC50 was 162 nM. For `CCCc1ccc2c(S(=O)(=O)Nc3ncc(CC(F)F)c(OC)n3)c[nH]c2c1` [Example 153, N-[5-(2,2-difluoroethyl)-4-methoxypyrimidin-2-yl]-6-propyl-1H-indole-3-sulfonamide], the IC50 was 353 nM. Compound `COc1nc(NS(=O)(=O)c2c[nH]c3c(OC4CC4)c(Cl)ccc23)ncc1CC(F)F` [Example 127, 6-chloro-7-(cyclopropoxy)-N-[5-(2,2-difluoroethyl)-4-methoxy-pyrimidin-2-yl]-1H-indole-3-sulfonamide] has an IC50 of 30 nM. For `COc1nc(NS(=O)(=O)c2c[nH]c3cc(C4CC4)ccc23)ncc1CC(F)F` [Example 254, 6-cyclopropyl-N-[5-(2,2-difluoroethyl)-4-methoxy-pyrimidin-2-yl]-1H-indole-3-sulfonamide], the IC50 was 75 nM. In the case of `COc1nc(NS(=O)(=O)c2c[nH]c3cc(Cl)ccc23)ncc1OCCOC(F)F` [Example 9, 6-chloro-N-[5-[2-(difluoromethoxy)ethoxy]-4-methoxy-pyrimidin-2-yl]-1H-indole-3-sulfonamide], the IC50 is reported as 218 nM. Work on `COc1nc(NS(=O)(=O)c2c[nH]c3cc(Br)ccc23)nc(OC)c1OCC#N` [Example 246, 6-bromo-N-[5-(cyanomethoxy)-4,6-dimethoxy-pyrimidin-2-yl]-1H-indole-3-sulfonamide] yielded an IC50 of 19 nM. `COc1nc(NS(=O)(=O)c2c[nH]c3cc(C(F)F)ccc23)nc(OC)c1CC(F)F` [Example 236, N-[5-(2,2-difluoroethyl)-4,6-dimethoxy-pyrimidin-2-yl]-6-(difluoromethyl)-1H-indole-3-sulfonamide] gave an IC50 of 14 nM. Compound `COc1nc(NS(=O)(=O)c2c[nH]c3cc(Br)ccc23)nc(OC)c1OC(F)F` [Example 90, 6-bromo-N-[5-(difluoromethoxy)-4,6-dimethoxy-pyrimidin-2-yl]-1H-indole-3-sulfonamide] has an IC50 of 29 nM.
